Reference: paper PMC9555310, “Novel inhibitors and activity-based probes targeting serine proteases” (Frontiers in Chemistry, 2022)

What was measured:
[1] = biological target: T1, trypsin (Sus scrofa, UniProt P00761); experiment: Activity-based profiling of trypsin (SDS-PAGE, streptavidin-HRP western blot); format: binding, porcine; conditions: added 30 min prior to NAP830
T1 construct: purchased Sigma-Aldrich; host or cells: porcine pancreas
Description: Samples of recombinant protease (trypsin, plasmin, thrombin, chymotrypsin, or HNE, as indicated in the relevant figure legends) were treated with each of the newly synthesized compounds at a concentration of 50 μM, for 30 min, at 37°C. A control sample (no ABP) was prepared by treating the recombinant protease with solvent vehicle (DMF) only, used to prepare the stock solution of each ABP. Samples were also pre-treated (±90°C for 30 min) before being incubated with each putative ABP. With trypsin and thrombin, further samples were prepared where Z-Arg^P-(OPh)2 or NAP559, respectively, was added 30 min prior to the addition of the ABP under examination. All treated samples were then denatured with SDS containing reducing treatment buffer (10 min at 95°C), followed by resolution by SDS-PAGE and subjected to Western blotting. Resolved proteins were then transferred onto the nitrocellulose membrane and labeled with streptavidin-HRP. […]
Following transfer, the extra protein binding sites on the membrane were blocked by addition of 3% (w/v) BSA in TBST (20 mM Tris, 137 mM NaCl, 1% (v/v) Tween 20, pH 7.6) and agitated gently at room temperature for 30 minutes. The biotin-labelled proteases were then detected by addition of Streptavidin-HRP (Vector Laboratories) in 3% (w/v) BSA in TBST at a concentration of 1:20000, for 1 hour at room temperature. […]

[2] = biological target: T2, neutrophil elastase (NE) (Homo sapiens, UniProt P08246); set-up: method as in Gilmore et al. (2009); conditions: ref Gilmore et al. (2009); cited from earlier work
T2 construct: purchased Calbiochem
T2 sequence (P08246 30-267): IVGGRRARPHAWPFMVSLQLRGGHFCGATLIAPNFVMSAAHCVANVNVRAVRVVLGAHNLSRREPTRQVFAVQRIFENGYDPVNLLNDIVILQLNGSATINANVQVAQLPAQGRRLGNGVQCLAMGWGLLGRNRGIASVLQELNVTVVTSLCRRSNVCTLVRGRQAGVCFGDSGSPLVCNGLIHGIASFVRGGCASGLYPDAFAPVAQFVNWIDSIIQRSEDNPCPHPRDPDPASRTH

T1 sequence (P00761 9-231): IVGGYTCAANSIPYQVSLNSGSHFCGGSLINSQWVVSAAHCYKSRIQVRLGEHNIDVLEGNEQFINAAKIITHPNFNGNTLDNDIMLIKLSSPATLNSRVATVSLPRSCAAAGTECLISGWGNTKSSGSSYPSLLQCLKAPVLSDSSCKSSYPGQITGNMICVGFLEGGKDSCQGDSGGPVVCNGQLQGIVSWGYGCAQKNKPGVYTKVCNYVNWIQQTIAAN

Row | Compound | effect of pre-treatment of trypsin on signal detected by NAP830 [1] | k 3 / K i [2] [M⁻¹ s⁻¹]
1 | NC(N)=NCCCC(NC(=O)OCc1ccccc1)P(=O)(Oc1ccccc1)Oc1ccccc1 (centres unmarked) [Z-Arg^P-(OPh)2, reference compound] | quenching/diminution in the signal detected by NAP830 | 
2 | biotin-PEG-succinyl-Val^P-(OPh)2 [QUBEL1] |  | 215
